Data reported in patent US9464064B2, “HCV helicase inhibitors and methods of use thereof” (University of Kansas, priority 2011, dated 2016).

Biological target: T1, HCV NS3 helicase NS3h_1b(con1) (Hepatitis C virus genotype 1b, UniProt Q9WMX2)
T1 construct: truncated C-terminally His-tagged NS3 proteins lacking the N-terminal protease, called NS3h; His-tag (C); made in house
Test: MBHA screen of NCI mechanistic set library at 20 μM (percent inhibition, compound interference)
Format: biochemical
Details: compounds at 20 μM; for Inh. (%) (Inhibition): calculated from Equation 1
Method in brief: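 Molecular beacon-based DNA unwinding assay; compounds screened at 20 μM in triplicate, with DMSO-only negative and 500 nM dT20 positive controls. Fluorescence (ex 643/em 670 nm) was read before and 30 min after adding ATP to 1 mM. Percent inhibition came from the change relative to DMSO controls; interference from pre-ATP fluorescence versus DMSO controls.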

[1] = MBHA with DNA substrate, assay interference calculated with Equation 2
[2] = assay interference calculated with Equation 2 (fluorescence vs DMSO-only controls before ATP)

T1 sequence (Q9WMX2 1192-1657): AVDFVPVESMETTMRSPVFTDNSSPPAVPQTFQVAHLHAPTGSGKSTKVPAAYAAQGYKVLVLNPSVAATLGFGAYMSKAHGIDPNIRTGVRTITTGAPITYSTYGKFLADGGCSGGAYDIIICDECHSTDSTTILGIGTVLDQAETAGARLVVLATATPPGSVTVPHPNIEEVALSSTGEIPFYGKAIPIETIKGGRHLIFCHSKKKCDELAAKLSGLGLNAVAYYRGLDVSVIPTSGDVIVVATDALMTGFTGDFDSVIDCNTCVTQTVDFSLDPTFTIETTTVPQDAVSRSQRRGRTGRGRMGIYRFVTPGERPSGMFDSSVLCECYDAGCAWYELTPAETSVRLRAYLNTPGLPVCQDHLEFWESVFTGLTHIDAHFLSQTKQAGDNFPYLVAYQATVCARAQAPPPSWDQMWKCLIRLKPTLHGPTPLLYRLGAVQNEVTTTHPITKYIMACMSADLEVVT

Structure (SMILES)	Int.* (Ratio) (Interference) [1]	Inh. (%) (Inhibition) (MBHA with DNA substrate)	Inh. (%) (Inhibition) (MBHA with a DNA substrate)	Int.* (Ratio) (Interference) [2]
NCCCNCCSP(=O)(O)O [Compound 296961]	0.92 Ratio	17.5%		
COc1cc2oc(=O)cc(C)c2cc1[N+](=O)[O-] [Compound 299879]	0.94 Ratio	20.5%		
COc1ccc(-c2csc(=[N+]3CCCCC3)s2)cc1.O=S(=O)(O)O [Compound 302358]	1.05 Ratio	1.1%		
C=C1C(=O)C2=CC1CCC(=O)C1(C)CCC(OC(C)=O)C(C)(C)C1CC2O (centres unmarked) [Compound 302979]	0.89 Ratio	−8.3%		
CCC12C[N+]3([O-])CCc4c([nH]c5ccccc45)C(C(=O)OC)(c4cc5c(cc4OC)N(C)C4C(O)(C(=O)OC)C(OC(C)=O)C6(CC)C=CCN7CCC54C76)CC(C3)C1O2 (centres unmarked) [Compound 304421]	0.97 Ratio	25.6%		
C=C1C(C)C2C(Cc3ccccc3)NC(=O)C23C(OC(C)=O)/C=C/C(C)(O)CC(C)C/C=C/C3C1O (centres unmarked) [Compound 305222]	1.03 Ratio	12.2%		
Nc1nc(N)c2cc(Sc3cccc(C(F)(F)F)c3)ccc2n1 [Compound 305782]	0.87 Ratio	28.4%		
CC(C)(C)NCCC(O)c1cc(C(F)(F)F)nc2c(C(F)(F)F)cccc12.O=P(O)(O)O (centres unmarked) [Compound 305819]	0.99 Ratio	28.1%		
CC(=O)N(C)c1ccc(Nc2cc(C)[nH]c3ccc4ncnc4c23)cc1.Cl [Compound 305884]			8.9%	1.04 Ratio
C[C@@H]1CC[C@@]2(OC1)O[C@H]1CC3[C@@H]4CC=C5C[C@@H](O[C@@H]6O[C@H](CO)[C@@H](O[C@@H]7O[C@@H](C)[C@H](O[C@@H]8O[C@@H](C)[C@H](O)[C@@H](O)[C@@H]8O)[C@@H](O)[C@H]7O)[C@H](O)[C@H]6O[C@@H]6O[C@@H](C)C(O)[C@@H](O)[C@H]6O)CC[C@]5(C)[C@H]4CC[C@]3(C)[C@H]1[C@@H]2C (some centres unmarked) [Compound 306864]	0.86 Ratio	1.3%		
O=NN(CCCl)C(=O)NCc1ccc[n+]([O-])c1 [Compound 307454]			−2.9%	1.08 Ratio
CN(C)CCN1C(=O)c2cccc3cc(N)cc(c23)C1=O [Compound 308847]	1.05 Ratio	−13.3%		
CC(=O)O.Cc1c2cc[n+](CCN3CCCCC3)cc2c(C)c2c1[nH]c1ccc(O)cc12 [Compound 311153]	0.29 Ratio	5.0%		
CCP(CC)CC.[Au+].[Cl-] [Compound 313981]			−3.8%	0.93 Ratio
COc1cc2c3c(n(C)c(=O)c2cc1OC)-c1cc2c(cc1C3=O)OCO2 [Compound 314622]	0.70 Ratio	23.1%		
O=C1c2ccccc2C(=O)c2c(O)c(NCCNCCO)cc(O)c21 [Compound 316157]	0.70 Ratio	36.4%		
C/C(=N\NC(=S)N1CCC1)c1ccccn1 [Compound 319726]	1.02 Ratio	3.2%		
Nc1ccc2c(c1)CN1C(=O)c3ccccc3C1=N2 [Compound 320846]			10.7%	0.90 Ratio
O=C(N=Nc1c(O)[nH]c2c(Cl)cc(Cl)cc12)c1ccccc1O [Compound 320864]	0.80 Ratio	4.4%		
COc1ccc2c(c1[N+](=O)[O-])CC[C@@H]1[C@@H]2CC[C@]2(C)C(=O)CC[C@@H]12 [Compound 321803]	1.02 Ratio	−11.7%		
C/C(=N\N=C(/[Se])N1CC2CCC(CC2)C1)c1ccccn1 [Compound 323241]			10.7%	0.90 Ratio
CCCCCCCCCCCCCCCCCCOCC(COP(=O)([O-])OCC[N+](C)(C)C)OC (centres unmarked) [Compound 324368]	0.85 Ratio	−15.0%		
CCCCS(=N)(=O)CCC(N)C(=O)O (centres unmarked) [Compound 326231]	0.94 Ratio	28.0%		
Clc1cc2nc[nH]c2cc1Cl [Compound 326397]	1.06 Ratio	1.6%		
CN(C)c1ccc(/C=N/N=C2\C(=O)Nc3c(Cl)cc(Cl)cc32)cc1 [Compound 327697]	1.22 Ratio	−10.2%		

Structure (SMILES)	Int.* (Ratio) (Interference) [1]	Inh. (%) (Inhibition) (MBHA with DNA substrate)	Inh. (%) (Inhibition) (MBHA with a DNA substrate)	Int.* (Ratio) (Interference) [2]
C[C@@H]1CCOC(=O)/C=C/C=C\C(=O)O[C@@H]2C[C@H]3O[C@@H]4[C@@H]5O[C@]5(C)[C@H](O)C[C@]4(COC(=O)[C@H]1O)[C@]2(C)[C@@]31CO1 [Compound 328166]	1.04 Ratio	20.7%		
CC(=O)OC1C(O)C(C)OC(OC2C(OC(=O)C3CCC4C(C3)OC3(CC(OC(=O)/C=C/c5ccccc5)C(C)CO3)C43CO3)OC(C)C(O)C2OC(C)=O)C1O (centres unmarked) [Compound 328426]			−3.0%	1.00 Ratio
Cc1c(Cl)cccc1NC(=O)c1cccc([N+](=O)[O-])c1O [Compound 328477]	0.96 Ratio	−0.8%		
CC1(C)CC2=NO[Se]3=C2C(=NO3)C1 [Compound 328587]	0.95 Ratio	−1.3%		
CCOc1cccc(/C=N/N=C2\C(=O)Nc3c(Cl)cc(Cl)cc32)c1O [Compound 329277]	1.08 Ratio	−11.4%		
O=C1Nc2c(Cl)cc(Cl)cc2C1=NN=Cc1ccco1 [Compound 329279]	0.94 Ratio	1.9%		
C=C1C(=O)O[C@@H]2/C=C(/C)C(=O)C[C@H]3OC(C)(C)O[C@]3(C)C[C@@H](OC(=O)/C(C)=C\C)[C@@H]12 [Compound 329696]	0.81 Ratio	32.6%		
COC1CC(C)C(OC)c2cc(O)cc(c2O)NC(=O)/C(C)=C/C=C\C(C)C(OC(N)=O)/C(C)=C/C(C)C1OC (centres unmarked) [Compound 330500]			12.0%	1.04 Ratio
COc1cc2c(c(O)c1OC)-c1c(cc(OC)c(OC)c1OC)C[C@@H](C)[C@@H](C)C2 [Compound 330515]	0.95 Ratio	4.3%		
COc1cc2c(c(OC)c1OC)-c1c(cc3c(c1OC)OCO3)CC(C)C(C)(O)C2OC(=O)c1ccccc1 (centres unmarked) [Compound 330516]	0.92 Ratio	13.8%		
CC(=O)O[C@H]1C(=O)[C@@]2(C)[C@H]([C@H](OC(=O)c3ccccc3)[C@]3(O)C[C@H](O)C(C)=C1C3(C)C)[C@]1(OC(C)=O)CO[C@@H]1C[C@@H]2O [Compound 330753]			−24.1%	0.88 Ratio
CCOC(=O)Nc1cc2c(c(N)n1)N=C(c1ccccc1)CN2 [Compound 330770]	0.91 Ratio	−1.6%		
CCN(CC)CCCC(C)NC(=O)c1ccc2c(c1)C(=O)c1ccccc1C2=O.Cl (centres unmarked) [Compound 331757]	0.93 Ratio	−16.9%		
CO[C@@H](/C(C)=C/C=C/C(C)=C/c1coc(C)n1)[C@@H](C)[C@@H]1C[C@H](O)[C@@]2(C)O[C@@H]2/C=C/[C@@H](C)[C@H]2C[C@H](CC(=O)O2)C[C@@H]2O[C@H]2C(=O)O1 [Compound 332598]	0.98 Ratio	−11.7%		
COC(=O)NC1C(C)OC(OC2C/C=C(\C)C3C=C[C@H]4C(OC5CC(OC6CCC(OC7CC(O)C(OC8CCC(O)C(C)O8)C(C)O7)C(C)O6)C(OC(C)=O)C(C)O5)C(C)CC(C)[C@@H]4[C@@]3(C)C([O-])=C3C(=O)OC4(CC(C=O)=CC(O)[C@@H]4/C=C\2C)C3=O)CC1(C)[N+](=O)[O-].[Na+] (some centres unmarked) [Compound 333856]			−5.2%	0.95 Ratio
Cc1c2ccnc(C(N)=O)c2c(C)c2c1[nH]c1ccccc12.Cl [Compound 335142]	0.95 Ratio	−1.5%		
O=C1NC(=S)NC(=O)C1C(=O)Nc1ccccc1 [Compound 336628]	0.90 Ratio	17.4%		
O=C1c2ccccc2-c2c1c1ccccc1c(=O)n2Cc1ccccc1 [Compound 337612]	0.97 Ratio	−16.5%		
C(=N\NC1=NCCN1)/c1c2ccccc2c(/C=N/NC2=NCCN2)c2ccccc12 [Compound 337766]	0.65 Ratio	70.0%		
CN(C)c1ccc2c(SCC(=O)OCC(=O)[C@@]3(O)CC[C@H]4[C@@H]5CCC6=CC(=O)C=C[C@]6(C)[C@H]5C(=O)C[C@@]43C)c3ccc(N(C)C)cc3nc2c1 [Compound 337851]	0.29 Ratio	2.3%		
Oc1cc2c3c(c1)c1cc4c(cc1c[n+]3CC2)OCO4.[Cl-] [Compound 338259]	0.93 Ratio	45.5%		
COc1nc(C(Cl)(Cl)Cl)c(Cl)c(OC)c1Cl [Compound 338720]			7.0%	0.93 Ratio
Nc1ccc(S(=O)(=O)Nc2cnc3c(Cl)cccc3n2)cc1 [Compound 339004]	0.89 Ratio	18.5%		
O=C(CCCN1CCC(C(O)c2ccc(F)cc2)CC1)c1ccc(F)cc1 (centres unmarked) [Compound 343513]	0.91 Ratio	−8.7%		
